Measurements published in US20240335404A1, “SUBSTITUTED ESTERS CONTAINING POLYOLS AND SACCHARIDES FOR TREATING HEPATOTOXICITY AND FATTY LIVER DISEASES” (SINEW PHARMA INC., priority 2015, published 2024).
Like-named read-outs stand apart in the source and are kept apart here.

Key:
HepG2 fatty liver cells = assay: TG content in oleic acid-induced fatty liver cells from HepG2; type: cell-based, human; details: tested substances 1.0 μM
Method: The activity of the various ingredients as described herein, including mannitol and sucralose and others, in reduction of fat content was analyzed by using human hepatoma cell line Hep G2.
HepG2 cell lines (15×10^6 cells) were cultured in DMEM culture No. B, incubated in an incubator with 5% CO2 at 37° C. for 24 hours, cultured in DMEM culture No. C (serum-free medium) for 24 hours, and finally cultured in DMEM culture No. D (containing oleate/albumin complex) for another 48 hours to induce HepG2 cell lines to form fatty liver cells.
HepG2 cell lines were divided into six groups, including: (1) Blank: no treatment; (2) DMSO group: cells from Blank were treated with dimethyl sulfoxide (DMSO); (3) Control: induction with oleic acid to form fatty liver cells; (4) Vehicle group: fatty liver cells formed by induction with oleic acid were treated with DMSO; (5) Positive control: fatty liver cells were treated with silyrnarin; and (6) Test Group: fatty liver cells were treated with various compounds of the present invention.
After incubation for 72 hours, the treated cells from each group were successively washed twice in PBS, and then incubated with 0.5 ml of trypsin/EDTA for 3 minutes. Afterwards, the cells were scraped with 2 ml of PBS and then transferred to the centrifuge tube to be shattered by ultrasonic. A volume of 20 μl cell extracts was taken to determine the content of protein. TG determination was performed using commercially available combination of agents (Randox). The TG content obtained above was divided by the protein content to get a ratio, which represented the relative content of TG in cells.
The equation for calculating reduction rate (%) of TG was as follows: [1−(TG content of Test Group−TG content of Blank)/(TG content of Oleic acid induction Group−TG content of Blank)]×100%.

CYP2E1 = CYP2E1 (Homo sapiens, UniProt P05181); details: microsomes, 30 min, pH 7.4
CYP2E1, sequence (P05181 whole entry): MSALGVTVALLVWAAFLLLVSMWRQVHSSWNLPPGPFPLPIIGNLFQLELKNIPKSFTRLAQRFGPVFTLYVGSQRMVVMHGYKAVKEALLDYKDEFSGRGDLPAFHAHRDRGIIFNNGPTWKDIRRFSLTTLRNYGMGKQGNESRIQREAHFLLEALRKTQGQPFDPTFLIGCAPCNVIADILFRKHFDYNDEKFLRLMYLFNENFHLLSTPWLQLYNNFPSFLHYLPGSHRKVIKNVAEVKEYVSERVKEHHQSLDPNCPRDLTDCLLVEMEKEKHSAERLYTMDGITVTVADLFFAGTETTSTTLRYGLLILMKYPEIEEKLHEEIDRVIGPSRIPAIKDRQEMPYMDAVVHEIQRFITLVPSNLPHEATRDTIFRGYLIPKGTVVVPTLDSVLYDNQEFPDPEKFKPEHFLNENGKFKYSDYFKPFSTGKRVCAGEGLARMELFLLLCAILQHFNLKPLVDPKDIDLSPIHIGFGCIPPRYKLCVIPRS
Method: After addition of the test sample, the amount of CYP450 isozyme metabolite standard 6-OH-CZX (6-Hydroxy-Chlorzoxazone) is specific used for calculation of the CYP450 isozyme (CYP2E1) inhibition ratio of the test sample by using the amount of 6-OH-CZX of the control group as the baseline.
All samples were tested in triplicate. To determine the percentage inhibition, each test compound was dissolved in 1, 2, 4 μg/mL to three different concentrations. The CYP2E1 activity levels in the presence of the test compounds were compared with the control incubations. The 500-μL reaction mixture, containing 0.5 mg of microsomal protein, was incubated with 320 μM CZX in the presence of 5 mM MgCl2 and 1 mM NADPH in 50 mM phosphate buffer with pH 7.4 at 37° C. for 30 min. The reaction was terminated by ice-cold acetonitrile, and then 4-hydroxyl tolbutamide was added as an internal standard. The organic phase was evaporated to dryness and reconstituted into the mobile phase (methanol:water=1:1) prior to liquid chromatography-tandem mass spectrometry (LC-MS/MS) analysis. An API 3000 triple-quadrupole mass spectrometer equipped with an ion-spray (ESI) source was used to determine 6-OH-CZX in the human liver microsomes. The ESI interface was used in the positive-ion mode. The 6-OH-CZX was monitored at a transition of m/z 284.5→185.9.
The CYP450 isozyme activity levels in the presence of the test compounds were compared with the control incubations.

[1] = system: Liver Injuries Induced by CCl4; assay: Liver injuries induced by CCl4 in mice (GSP, AST/ALT, HAI); type: in vivo; details: CCl4-induced liver injuries; dose less than or equivalent to 100 mg per person
Method: In the normal control, animals were administered with normal saline by intraperitoneal injection. In the control group of CCl4 induced liver injuries, animals were intraperitoneally injected with 10 ml/kg CCl4 (40% in corn oil) to induce hepatotoxicity. In the experimental group, animals were intraperitoneally injected with 10 ml/kg CCl4 (40% in corn oil) to induce hepatotoxicity, and 4 hours later, different ingredients of the present invention were administered by tube feeding. Blood was collected from the mice before administration with the ingredients of the present invention or at 24 hours after administration with the ingredients of the present invention for AST/ALT assays. Finally, animals were sacrificed at day 2 and blood were collected for AST/ALT assay and histological analysis was performed.
On the other hand, other experimental groups of mice were fed with the ingredients of the present invention for 12 weeks and the mice were subjected to GSP tests.
(§1) Liver damage is quantified by measuring plasma AST and ALT activity. AST and ALT are common indicators of hepatotoxicity and are measured by using the Synchron LXi 725 system (Beckman Instruments, U.S.).
Following scarification of the rats, histological analysis was performed. Liver samples were fixed with 10% phosphate-buffered formalin, dehydrated an embedded in paraffin, Sections were prepared in 5 μm thickness and then stained with hematoxylin and eosin and subjected to Periodic acid Schiff stain (PAS). The stained sections were observed under the optic microscope.
After the study was completed, all rats were subjected to GSP test. Rats were i.v. injected with 0.4 g/ml BW galactose solution 0.5 g/kg within 30 seconds and one blood sample was collected at 5, 10, 15, 30, 45 and 60 minutes post injection from the tail vein. Colorimetric galactose dehydrogenase is used to quantify the concentration of galactose and the test concentration ranges from 50 to 1,000 μg/ml. The within-day variation of each concentration is calculated using standard deviation and coefficient of variation (CV) and the maximum allowable coefficient of variation is 10% CV, whereas day-to-day variation is examined by comparing the slope and intercept of calibration curves. The GSP is the blood galactose concentration obtained 60 seconds after stopping the 30-second injection.
All data are represented in mean±standard deviation (SD) and the results are calculated using ANOVA to determine the significance. Statistical Package of the Social Science program (Version 13, SPSS Inc.) is used for calculations followed by post hoc test to examine the least significant difference for multiple comparisons so as to confirm the significant differences between groups and the average difference between groups was significant p<0.05.

[2] = system: Liver Injuries Induced by APAP; assay: Liver injuries induced by APAP in rats (GSP, AST/ALT, HAI, survival); type: in vivo, SD (Sprague-Dawley) rats; details: APAP 2,000 mg/kg, 140 mg/kg of NAC followed by 5 × 70 mg/kg NAC at 4 h intervals
Method: Male SD (Sprague-Dawley) rats weighing 175-280 g were purchased from the National Laboratory Animal Center (NLAC), Taiwan. The study was conducted in accordance with the Guidelines for Conducting Animal Studies of the National Health Research Institute and all rats were placed in the air/humidity controlled environment under the 12 hours of day/12 hours of night cycle and with unlimited water and food supply. During the course of the study, the weights of rats were monitored continuously with normal water supply.
In the normal control (Group 1), animals were not fed with APAP. In the control group of APAP-induced liver injuries (Group 2), animals were fed with a single dose of APAP in the amount of 2,000 mg per kilogram of body weight to induce hepatotoxicity. In the positive control group of treatment with NAC (Group 3), animals were fed with a single dose of APAP in the amount of 2,000 mg per kilogram of body weight to induce hepatotoxicity, and 4 hours later, a 24-hour treatment period by tube feeding was started, including first administration of 140 mg of NAC (per kilogram of body weight) and later administration of 70 mg of NAC (per kilogram of body weight) every 4 hours for five times. In the experimental group (Group 4), animals were fed with a single dose of APAP in the amount of 2,000 mg per kilogram of body weight to induce hepatotoxicity, and 4 hours later, a 24-hour treatment period by tube feeding was started, including six dosing with the ingredients of the present invention every 4 hours, as follows: • (a) (Group 4.1): administration of mannitol at a dose less than or equivalent to 100 mg per person every 4 hours for 24 hours, • (b) (Group 4.2): administration of double dose of mannitol as in Group 4.1 every 4 hours for 24 hours, • (c) (Group 4.3): administration of sucralose at a dose less than or equivalent to 100 mg per person every 4 hours for 24 hours, • (d) (Group 4.4): administration of double dose of sucralose of Group 4.3 every 4 hours for 24 hours, • (e) (Group 4.5): administration of a combination of 0.5 times the dose of mannitol as in Group 4.1 and 0.5 times the dose of sucralose as in Group 4.3 per kilogram of body weight every 4 hours for 24 hours, • (f) (Group 4.6): administration of a combination of the dose of mannitol as in Group 4.1 and the dose of sucralose as in Group 4.3 every 4 hours for 24 hours, • (g) (Group 4.7): administration of a combination of 1.5 times the dose of mannitol as in Group 4.1 and 1.5 times the dose of sucralose as in Group 4.3 every 4 hours for 24 hours, • (h) (Group 4.8): administration of a combination of double dose of mannitol as in Group 4.1 and double dose of sucralose as in Group 4.3 every 4 hours for 24 hours, and • (i) (Group 4.9): first administration of 140 mg of NAC per kilogram of body weight and later administration of a combination of 70 mg of NAC plus double dose of mannitol as in Group 4.1 and double dose of sucralose as in Group 4.3 every 4 hours for five times.
After the 24-hour treatment period, blood was collected from the tail artery of the rats for AST/SLT assays. Subsequently, rats were subjected to GSP tests. Finally, rats were sacrificed and histological analysis was performed.
After completion of the treatments, rats were sacrificed under ether anesthesia, and blood was collected from the tail artery of the rats and placed in a test tube containing EDTA. The plasma was centrifuged at 13,000 at 4° C. for 15 minutes and the isolated plasma was transferred to Eppendorf tubes in aliquots and stored at −80° C.
as §1
Following scarification of the rats, histological analysis was performed.

## Oc1cc(O)c2c(c1)O[C@H](c1ccc(O)c(O)c1)[C@@H](O)C2 [(+)-Catechin]
HepG2 fatty liver cells
  TG reduction rate (%): 29.57 ± 4.02%

## Oc1cc(O)c2c(c1)O[C@H](c1ccc(O)c(O)c1)[C@H](O)C2 [(−)-Epicatechin]
HepG2 fatty liver cells
  TG reduction rate (%): 10.76 ± 8.92%

## Oc1cc(O)c2c(c1)O[C@H](c1cc(O)c(O)c(O)c1)[C@H](O)C2 [(−)-Epigallocatechin]
HepG2 fatty liver cells
  TG reduction rate (%): 36.78 ± 6.67%

## COc1ccc(O)c(C(C)(C)C)c1 [Butylated hydroxyanisole]
HepG2 fatty liver cells
  TG reduction rate (%): 6.21 ± 3.8%

## CCN(CC)C(=S)S [DDTC, Diethyldithiocarbamic acid]
CYP2E1; 10 μM
  CYP 2E1 inhibition ratio (%): 11.2 ± 2.4%
CYP2E1; 50 μM
  CYP 2E1 inhibition ratio (%): 51.2 ± 3.2%

## COc1ccc([C@@H]2CC(=O)c3c(O)cc(O[C@@H]4O[C@H](CO[C@@H]5O[C@@H](C)[C@H](O)[C@@H](O)[C@H]5O)[C@@H](O)[C@H](O)[C@H]4O)cc3O2)cc1 [Didymin]
HepG2 fatty liver cells
  TG reduction rate (%): 20.37 ± 12.69%

## O=c1c(O)c(-c2ccc(O)c(O)c2)oc2c(O[C@@H]3O[C@H](CO)[C@@H](O)[C@H](O)[C@H]3O)c(O)cc(O)c12 [Gossypin]
HepG2 fatty liver cells
  TG reduction rate (%): 20.25 ± 4.63%

## COc1ccc([C@@H]2CC(=O)c3c(O)cc(O[C@@H]4O[C@H](CO[C@@H]5O[C@@H](C)[C@H](O)[C@@H](O)[C@H]5O)[C@@H](O)[C@H](O)[C@H]4O)cc3O2)cc1O [Hesperidin]
HepG2 fatty liver cells
  TG reduction rate (%): 34.81 ± 5.25%

## O=c1c(O)c(-c2ccc(O)cc2)oc2cc(O)cc(O)c12 [Kaempferol]
[1]
  ALT: 128 ± 40 IU/L
  AST: 198 ± 105 IU/L
  GSP: 456 ± 101 mg/L

## COc1ccc(-c2cc(=O)c3c(O)cc(O[C@@H]4O[C@H](CO[C@@H]5O[C@@H](C)[C@H](O)[C@@H](O)[C@H]5O)[C@@H](O)[C@H](O)[C@H]4O)cc3o2)cc1 [Linarin]
HepG2 fatty liver cells
  TG reduction rate (%): 9.24 ± 12.34%

## O=c1cc(-c2ccc(O)c(O)c2)oc2cc(O[C@@H]3O[C@H](CO)[C@@H](O)[C@H](O)[C@H]3O)cc(O)c12 [Luteolin-7-glucoside]
HepG2 fatty liver cells
  TG reduction rate (%): 19.33 ± 4.59%

## CC(=O)N[C@@H](CS)C(=O)O [NAC, N-acetylcysteine, reference compound]
[2]
  ALT: 221 ± 69 IU/L
  AST: 428 ± 74 IU/L
  GSP: 393 ± 68 mg/L
  Total HAI score: 4.2 ± 0.8
[2]; Day 14
  Survival (Day 14, n/n): 3/6

## COc1ccc([C@@H]2CC(=O)c3c(O)cc(O[C@@H]4O[C@H](CO)[C@@H](O)[C@H](O)[C@H]4O[C@@H]4O[C@@H](C)[C@H](O)[C@@H](O)[C@H]4O)cc3O2)cc1O [Neohesperidin]
HepG2 fatty liver cells
  TG reduction rate (%): 13.29 ± 7.21%

## O=C(O)c1ccc(O)c(O)c1 [Protocatechuic acid]
HepG2 fatty liver cells
  TG reduction rate (%): 18.57 ± 7.6%

## C[C@@H]1O[C@@H](Oc2c(-c3ccc(O)c(O)c3)oc3cc(O)cc(O)c3c2=O)[C@H](O)[C@H](O)[C@H]1O [Quercitrin]
HepG2 fatty liver cells
  TG reduction rate (%): 9.15 ± 9.24%

## COc1ccc(-c2cc(=O)c3c(O)cc(O)c(-c4cc(-c5cc(=O)c6c(O)cc(OC)cc6o5)ccc4OC)c3o2)cc1 [Sciadopitysin]
HepG2 fatty liver cells
  TG reduction rate (%): 21.83 ± 5.04%

## O=C([O-])c1ccccc1.[Na+] [Sodium benzoate]
HepG2 fatty liver cells
  TG reduction rate (%): 14.35 ± 4.86%

## O=S(=O)([O-])NC1CCCCC1.[Na+] [Sodium cyclamate]
HepG2 fatty liver cells
  TG reduction rate (%): 4.77 ± 4.49%

## COc1c(O)cc(O)c2c(=O)cc(-c3ccccc3)oc12 [Wongonin]
HepG2 fatty liver cells
  TG reduction rate (%): 20.78 ± 1.12%

## O=c1c(O)c(-c2ccc(O)c(O)c2)oc2cc(O)cc(O)c12 [quercetin]
[1]
  ALT: 93 ± 26 IU/L
  AST: 115 ± 40 IU/L
  GSP: 286 ± 70 mg/L
  Total HAI score: 1.1 ± 0.7

## (−)-Epicatechin-3-gallate
HepG2 fatty liver cells
  TG reduction rate (%): 32.7 ± 4.33%

## epigallocetechin-3-gallate
[1]
  ALT: 95 ± 36 IU/L
  AST: 144 ± 49 IU/L
  GSP: 312 ± 140 mg/L
  Total HAI score: 1.7 ± 0.9
